According to US20230234920A1, “Azirine Containing Compounds as Anti-Angiogenesis Agents and a Process for the Preparation Thereof” (COUNCIL OF SCIENTIFIC & INDUSTRIAL RESEARCH, priority 2020, published 2023):

Legend:
Balb/c mice = assay: Ear angiogenesis assay; format: in vivo; settings: 750 nM along with VEGF and bFGF
Procedure: (A) Control (0.1% DMSO), (B) sunitinib and (C) Compound 1 at their indicated concentration dissolved in 100 μL of 1×PBS injected into the […] of Balb/c mice (5 mice/treatment group). After 7 days of treatment ears were harvested, cryo-sectioned at […] thickness. CD31 immunostained and photographed under inverted microscope at 20× magnification. (B) Vasculature was quantified by counting total macro and micro blood vessels. Plotted graph is representative of four independent experiments and are represented as mean±SEM with significant difference compared with control at *p<0.05.
Sterile 1×PBS having mouse VEGF (50 ng/mL), bFGF (50 ng/mL), Heparin (10 mg/mL) and sunitinib (2 μM) as a positive control along with compound 1 (750 nM) as a test compound were injected subcutaneously into the ear of 8- to 12-week old male Balb/c mice. Equal volume of 1×PBS with all components except drug was used as a control and was injected in contra lateral ear. After 6 days, mice were sacrificed and the ears were excised and embedded in OCT for cryo-sectioning. Frozen sections of […] sizes were immunostained with endothelial cell markers anti CD31 and anti PECAM 1 antibody. This was quantified by total number of blood vessels count.

HCT116 colon tumor = HCT116 colon tumor model in nude mice; format: in vivo
Procedure: FIG. 12 represents Compound 1 inhibited tumor growth in vivo. Tumor sizes were recorded every alternate day by Vernier caliper measurements and calculated as [4/3*[…]*(length/2)*(width/2)]. (A) Nude mice with induced HCT116 tumor were given vehicle to the control group, sunitinib at (40 mg/kg) as a standard drug given orally and Compound 1 at (25 mg/kg) through IP route for 21 days and tumor regression was calculated for all groups. (B) Nude Mice with induced HCT116 colon tumor were given both, sunitinib and Compound 1 at (25 mg/kg) intra-muscularly for 15 days after attaining a tumor size of 100 mm^3, tumor volume reduction for treated groups were calculated and compared with control. Data are expressed as means±S.E.M. (6 mice/group) with significant difference compared with control at p<0.0001.
HCT 116 (Human colon cancer cell line) cells were trypsinised and the pellet was dissolved in ice chilled 1×PBS. HCT 116 cells suspension to a concentration of (1*10^6) cells in 50 μL PBS solution, were left on ice with occasional agitation. Mice were anaesthetized with ketamine: xylazine (100:10 mg/kg), abdominal side area was shaved and sterilized using 70% ethanol. 50 μL of cell suspension was injected slowly subcutaneously to all the mice. After 2 days, booster dose of tumor cells was injected to all mice as performed previously. The growth of the tumor was measured by using vernier caliper on day 2, 4, 6, 8, 10, 12, 14, 16 18, 20, 23 and presented in the form of tumor volume (mm^3)=[4/3*π*(long axis/2)*(short axis/2)]. After attaining a volume of 100 mm^3 of tumor size, all mice were distributed equally (n=6−8) in 3 groups of controls received vehicle (Olive oil). Sutent (25 mg/kg) as a positive control was given orally and Compound 1 (25 mg/kg) dissolved in olive oil was injected intra-muscularly for 15 days and the tumor size regression was measured on every alternate day as described previously. Post 15 days of treatment, mice from all groups were sacrificed and tumor was excised out and processed further for immunohistochemistry and molecular analysis.

[1] = tested on: MDA-MB 468 triple negative breast cancer; assay: MDA-MB 468 xenograft mouse model; format: in vivo, nude mice
Excerpt: FIG. 13 represents Effect of Compound 1 on triple negative breast cancer celline MDA-MB 468 in xenograft mouse model.
A nude mice model bearing orthotopic HCT116 colon tumor or MDA-MB 468 was used to evaluate the anti-tumor angiogenesis effect of Compound 1 in vivo (FIG. 12). […] To investigate the effects of Compound 1 on angiogenesis and molecular targets in vivo, we examined the expression level of endothelial-specific marker (CD31) in tumor samples.

Endothelin-1 receptor = assay: Endothelin-1 induced contraction of isolated artery rings; set-up: species or system mice; settings: for % contraction of aortic ring: ET-1 at 100 nM
Excerpt: FIG. 15 represents effect of Compound 1 on endothelin-1 concentration-response curves. (A) Concentration-response curve of endothelin-1 in isolated carotid arteries of vehicle-treated (Control) and Compound 1 treated mice. (B) Concentration-response curve of endothelin-1 in isolated carotid arteries of vehicle-treated (Control) and compound 3 along with compound 8 treated mice.
To test for the selectivity of the putative Endothelin-1 receptor, we applied endothelin-1 or Compound 1 in a concentration dependent manner to the […] to observe its contraction inhibition activity (FIG. 15).

[2] = Intramuscular pharmacokinetic study of bulk compound 1 and chiral isomers; format: in vivo, male Sprague Dawley (SD) rats; settings: IM 20 mg/kg
Procedure: In vivo pharmacokinetic study was performed in male Sprague Dawley (SD) rats (n=4). Intramuscular (IM) formulation of bulk of compound 1 as well as chiral isomer-1 and chiral isomer-2 was prepared by dissolving accurately weighed quantity of compound 1 (20 mg) in 1 mL of olive oil followed by vortexing for 2 min and sterilize through syringe filter. Blood samples were collected from the retro orbital plexus of rats under light ether anesthesia into microfuge tubes containing heparin as an anti-coagulant at 0.25, 0.5, 1, 3, 5, 7, 9, 24, 30, 48 and 72 hours post-dosing after intramuscular dose. Plasma sample was harvested by centrifuging the blood at 13000 rpm for 10 min on Sigma 1-15 K (Frankfurt, Germany) and stored frozen at −70±10° C. until bioanalysis. Each plasma sample (100 μl) was processed using protein precipitation method using 200 μl acetonitrile containing medicarpine as internal standard (I.S.) as protein precipitant, and 10 μl of the supernatant was injected for LC-MS/MS.

[3] = male, Sprague-Dawley, rat, plasma, mean ± S.D., n = 4

CCOC(=O)C1N=C1CCc1ccc(OC)cc1 (racemic) [Compound 1, Ethyl 3-(4-methoxyphenethyl)-2H-azirine-2-carboxylate]
CD31 expression and micro-vessels density (Balb/c mice): reduced CD31 expression and micro-vessels density | tumor volume (HCT116 colon tumor; 25 mg/kg IP route for 21 days, vs vehicle): progressive significant decrease in tumor volume | growth of HCT116 cells xenografts (HCT116 colon tumor; 25 mg/kg, 15 days): powerful inhibitory effect | T/C (HCT116 colon tumor; 25 mg/kg, day 2): 94.77% | T/C (HCT116 colon tumor; 25 mg/kg, day 4): 72.79% | T/C (HCT116 colon tumor; 25 mg/kg, day 6): 67.93% | T/C (HCT116 colon tumor; 25 mg/kg, day 8): 66.22% | T/C (HCT116 colon tumor; 25 mg/kg, day 10): 68.70% | T/C (HCT116 colon tumor; 25 mg/kg, day 12): 56.83% | T/C (HCT116 colon tumor; 25 mg/kg, day 14): 49.80% | T/C (HCT116 colon tumor; 25 mg/kg, day 16): 43.88% | vascular density in tumor tissues (CD31) (HCT116 colon tumor; 25 mg/kg, vs control group): reduced the vascular density in tumor tissues | tumor reduction (HCT116 colon tumor; in comparison to vehicle treated control group, end of experiment): 62.02% | tumor growth ([1]; 25 mg/kg): regresses tumor growth similar to that of sunitinib | tumor growth ([1]; 40 mg/kg): regresses tumor growth better than the standard compound sunitinib | concentration initiating inhibition of ET-1 mediated contraction (Endothelin-1 receptor): 3 nM | % contraction of aortic ring (Endothelin-1 receptor; 10 nM): about 35% | % contraction of aortic ring (Endothelin-1 receptor; 30 nM): ~25% | % contraction of aortic ring (Endothelin-1 receptor; 50 nM): about 20% | Cl ([2]; mean ± S.D., n = 4): 3.4 ± 0.327 mL/min/kg | Vd ([2]; mean ± S.D., n = 4): 4.017 ± 0.868 L/kg | concentration at 0.25 h ([2]; male, Sprague-Dawley, rat, plasma, intramuscular, 0.25 h): 2910 ± 950 ng/mL | concentration at 0.5 h ([2]; male, Sprague-Dawley, rat, plasma, intramuscular, 0.5 h): 4440 ± 460 ng/mL | concentration at 1 h ([2]; male, Sprague-Dawley, rat, plasma, intramuscular, 1 h): 3930 ± 1200 ng/mL | concentration at 3 h ([2]; male, Sprague-Dawley, rat, plasma, intramuscular, 3 h): 3240 ± 240 ng/mL | concentration at 5 h ([2]; male, Sprague-Dawley, rat, plasma, intramuscular, 5 h): 2830 ± 320 ng/mL | concentration at 7 h ([2]; male, Sprague-Dawley, rat, plasma, intramuscular, 7 h): 2390 ± 530 ng/mL | concentration at 9 h ([2]; male, Sprague-Dawley, rat, plasma, intramuscular, 9 h): 3210 ± 810 ng/mL | concentration at 24 h ([2]; male, Sprague-Dawley, rat, plasma, intramuscular, 24 h): 1740 ± 240 ng/mL | concentration at 30 h ([2]; male, Sprague-Dawley, rat, plasma, intramuscular, 30 h): 1660 ± 230 ng/mL | concentration at 48 h ([2]; male, Sprague-Dawley, rat, plasma, intramuscular, 48 h): 262 ± 120 ng/mL | concentration at 72 h ([2]; male, Sprague-Dawley, rat, plasma, intramuscular, 72 h): 107 ± 10 ng/mL | AUC(0-inf) [2, 3]: 98600 ± 9400 ng·h/mL | half-life [2, 3]: 13.5 ± 1.7 h | AUC(0-t) ([2]; male, Sprague-Dawley, rat, plasma, mean ± S.D., n = 4, read-out: AUC0-72): 96400 ± 9850 ng·h/mL | Cmax ([2]; male, Sprague-Dawley, rat, plasma, mean ± S.D., n = 4, read-out: Cmax): 4620 ± 435 ng/mL | MRT ([2]; male, Sprague-Dawley, rat, plasma, mean ± S.D., n = 4, read-out: MRT): 18 ± 1.57 h | Tmax ([2]; male, Sprague-Dawley, rat, plasma, mean ± S.D., n = 4, read-out: Tmax): 0.667 ± 0.288 h
